# Test results as given in patent publication US4518602A, “Vinyl carboxylic acid derivatives, their production and use as inhibitors of thromboxane synthetase” (priority 1982, dated 1985).
# Molecular target: T1, Thromboxane A2 (TXA2) synthetase (Equus caballus, UniProt A0A9L0T8T9)
# T1 sequence (A0A9L0T8T9 2-534): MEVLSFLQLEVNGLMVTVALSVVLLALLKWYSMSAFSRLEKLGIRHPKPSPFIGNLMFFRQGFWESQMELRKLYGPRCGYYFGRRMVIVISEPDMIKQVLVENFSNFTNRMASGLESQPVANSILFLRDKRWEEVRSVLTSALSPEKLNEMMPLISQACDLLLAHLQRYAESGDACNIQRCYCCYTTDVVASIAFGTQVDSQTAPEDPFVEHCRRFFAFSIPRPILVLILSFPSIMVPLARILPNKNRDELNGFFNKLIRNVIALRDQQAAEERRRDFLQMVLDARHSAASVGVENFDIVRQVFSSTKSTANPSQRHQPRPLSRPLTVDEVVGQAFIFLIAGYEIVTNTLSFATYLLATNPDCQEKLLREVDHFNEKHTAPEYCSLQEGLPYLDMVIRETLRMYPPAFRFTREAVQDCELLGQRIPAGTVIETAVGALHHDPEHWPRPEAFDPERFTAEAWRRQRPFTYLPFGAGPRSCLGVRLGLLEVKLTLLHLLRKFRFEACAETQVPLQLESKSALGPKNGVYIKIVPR
# Assay: Inhibitory Action on Thromboxane A2 (TXA2) Synthetase (indomethacin-treated horse platelet microsomes, TXB2 radioimmunoassay)
# Format: biochemical
# Description: As a specimen of TXA2 synthetase was employed horse platelet microsomes treated with indomethacin (indomethacin-treated horse platelet microsomes: IPM), which were prepared according to the method described by Needleman et al. (Science 193 163, 1976).
# to 60 μl of 50 mM tris-buffer solution (pH 7.5) of IPM (containing 140 μg as protein) was added 60 μl of the buffer solution or the solution containing the test compounds at various concentrations. The mixtures were left standing for 5 minutes at room temperature. Then at 0° C. to 100 μl portion of the mixture was added 20 μl of the buffer solution containing 30 ng of prostaglandin H2 (PGH2). The mixtures were left standing for 5 minutes at 0° C. to cause formation of thromboxane A2 (TXA2). The reaction of thromboxane A2 production was stopped by the addition of 500 μl of the tris-buffer to the mixture. Using 50 μl of the mixtures, the quantitative determination of thromboxane B2 (TXB2), a stable metabolite of TXA2, was done by means of the radioimmunoassay (Shibouta et al., Biochem. Pharmacol. 28 3601, 1979).
# The inhibitory activity of the compounds on TXA2 -synthetase was determined from the difference in the production of TXB2 between the test group and the control group.
Structure (SMILES),inhibition at 0.03 µM (3 × 10^-8 M) [%],inhibition at 0.1 µM (10^-7 M) [%],% Inhibition on thromboxane A2 synthetase (3 × 10^-8 M) [%],% Inhibition on thromboxane A2 synthetase (10^-7 M) [%]
"CC(C)(CCC/C=C(\c1cccnc1)c1cccs1)C(=O)O [Compound 2-c, (E)-2,2-dimethyl-7-(3-pyridyl)-7-(2-thienyl)-6-heptenoic acid]",–,97,92,–
CC(C)(CCC/C=C(\c1cccnc1)c1cccs1)C(=O)O [3'-o],–,–,60,92
C#CCC(CCC/C=C(\c1ccccc1)c1cccnc1)C(=O)O (stereo not drawn) [3'-h],66,93,–,–
Cc1ccc(S(=O)(=O)C(CCCC/C=C(\c2ccccc2)c2cccnc2)C(=O)O)cc1 (stereo not drawn) [Compound 1-d],57,85,–,–
N#Cc1ccc(CC(CCC/C=C(\c2ccccc2)c2cccnc2)C(=O)O)cc1 (stereo not drawn) [3'-n],57,93,–,–
O=C(O)C(CCC/C=C(/c1ccccc1)c1cccnc1)Cc1ccccc1 (stereo not drawn) [3'-e],33,90,–,–
CC(C)(CCC/C=C(/c1cccnc1)c1cccs1)C(=O)O [3'-p],–,–,46,90
"CC(C)(CCC/C=C(\c1ccccc1)c1cccnc1)C(=O)O [Compound 2-a, (E)-2,2-dimethyl-7-phenyl-7-(3-pyridyl)-6-heptenoic acid]",83,92,–,–
"CC(C)(CCC/C=C(/c1ccccc1)c1cccnc1)C(=O)O [Compound 2-b, (Z)-2,2-dimethyl-7-phenyl-7-(3-pyridyl)-6-heptenoic acid]",49,90,–,–
O=C(O)C(CCCC=C(c1ccccc1)c1cccnc1)[S+]([O-])c1ccccc1 (stereo not drawn) [Compound 1-e],45,80,–,–
CC(C)(CCCC/C=C(/c1ccccc1)c1cccnc1)C(=O)O [Compound 1-m],44,92,–,–
CC(C)(CCCC/C=C(\c1ccccc1)c1cccnc1)C(=O)O [Compound 1-l],48,90,–,–
COCC(CCC/C=C(\c1ccccc1)c1cccnc1)C(=O)O (stereo not drawn) [3'-i],42,88,–,–
CC(CCCC=C(c1cccnc1)c1ccsc1)C(=O)O (stereo not drawn) [Compound 2-e],65,90,–,–
"CC(C)(CCC/C=C(/c1cccnc1)c1cccs1)C(=O)O [Compound 2-d, (Z)-2,2-dimethyl-7-(3-pyridyl)-7-(2-thienyl)-6-heptenoic acid]",62,92,–,–
Cc1ccc(S(=O)(=O)C(CCCC/C=C(/c2ccccc2)c2cccnc2)C(=O)O)cc1 (stereo not drawn) [Compound 1-b],45,80,–,–

# The remaining lines, values ahead:
inhibition at 0.03 µM (3 × 10^-8 M) [%],inhibition at 0.1 µM (10^-7 M) [%],% Inhibition on thromboxane A2 synthetase (3 × 10^-8 M) [%],% Inhibition on thromboxane A2 synthetase (10^-7 M) [%],Structure (SMILES)
30,87,–,–,COC(=O)C(C)(CCC/C=C(\c1ccccc1)c1cccnc1)Sc1ccccc1 (stereo not drawn) [Compound 4-h]
41,96,–,–,O=C(O)C(CCC/C=C(\c1cccnc1)c1cccs1)c1ccccc1 (stereo not drawn) [Compound 2-n]
60,93,–,–,O=C(O)C(CCC/C=C(\c1ccccc1)c1cccnc1)Sc1ccccc1 (stereo not drawn) [Compound 4-b]
59,92,–,–,C=C(C)C(CCC/C=C(\c1ccccc1)c1cccnc1)C(=O)O (stereo not drawn) [Compound 5-g]
50,88,–,–,O=C(O)C(CCC/C=C(/c1ccccc1)c1cccnc1)Sc1ccccc1 (stereo not drawn) [Compound 4-c]
32,77,–,–,O=C(O)C(CCC/C=C(\c1ccccc1)c1cccnc1)C1=CCCC1 (stereo not drawn) [Compound 5-i]
52,84,–,–,CSC(CCC/C=C(\c1ccccc1)c1cccnc1)C(=O)O (stereo not drawn) [Compound 4-a]
41,81,–,–,CC(C)(O)C(CCC/C=C(\c1ccccc1)c1cccnc1)C(=O)O (stereo not drawn) [Compound 5-j]
